Columns and labels:
[1] = test system: polymorphonuclear leukocytes; conditions: cited from earlier work
[2] = test system: L929 cells; assay: TNF-α-mediated cytotoxicity in L929 cells; format: cell-based, murine; conditions: human TNF-α 300 pg/ml; FIG. 9
Protocol: An inventive compound can be assayed for activity protecting TNF-mediated cytotoxicity. In this assay, L929 murine fibroblast cells (10^4 cells per well) are incubated with either compounds at varying doses and media control for two hrs. […] The cells plus (or minus) drug plus TNF were incubated for 40 hrs at 37° C. The media is removed and replaced with fresh media containing 2% serum and 10 μg/ml of BCECF fluorescent dye and incubated for 30 min. The fluorescent dye-containing media is removed and replaced with PBS (phosphate buffered saline) and each well was assayed for fluorescence.
This assay is a model for septic shock. L929 cells (10^5) were treated with human TNF-α at 300 pg/ml in RPMI media containing 10% fetal calf serum with or without compound no. One day later, the cells were stained for viability using the fluorescent dye BCECF and fluorescence of the samples was analyzed using a Milipore plate reader.

[3] = test system: PAPH; assay: inhibition of PAPH / DAG formation in specific activation pathway; format: biochemical, human; conditions: specific activation pathway that does not involve PI
Source text: The compounds and pharmaceutical compositions of the invention include inhibitors of subspecies of LPAAT and PAPH enzymes with substrate specificity for intermediates with 1,2-diunsaturated and 1-alkyl, 2-unsaturated subspecies. One representative example of such an inhibitor (although not within the genus of inventive compounds) is PTX. […] It should be emphasized that the compounds of the invention affect that subset of PAPH and LPAAT that relates to substrates with unsaturated fatty acids other than arachidonate in the sn-2 position, not the housekeeping forms of these enzymes that serve the PI pathway.
(§1) One in vitro assay measures inhibition of the relevant enzymes lysophosphatidic acid acyltransferase (LPAAT) and phosphatidic acid phosphoryl hydrolase (PAPH). […] It is important to note that the assay method permits discrimination between various forms of PA and DAG so that those relevant to the pathway affected by the (R) or (S) compounds of the invention can be measured directly. […] Thus, the relevant unsaturated (non-arachidonic) PA and DAG subspecies may be detected. […]

[4] = test system: LPAAT; assay: formation of remodeled PA at LPAAT; format: biochemical
Source text: Even in the presence of PTX, cells continue to form PA through the action of PLD, and DAG is also formed through the action of phospholipase C on PC and PI. The latter pathway are not inhibited by the inventive compounds or PTX. In PTX-treated cells, DAG derived from remodeled and PLA-generated PA is diminished (e.g., 1,2-sn-dioleoyl DAG, 1-alkyl, 2-linoleoyl DAG and 1-alkyl, 2-docosahexaneolyl DAG). Therefore, the inventive compounds and PTX inhibit the formation of only a certain species of PA and DAG by selectively inhibiting a specific second messenger pathway that is only activated in cells by noxious stimuli, but is not used to signal normal cellular housekeeping functions.
as §1

[5] = test system: ras transformation in NIH/3T3 cells; assay: generation of DAG and PA in ras-transformed NIH/3T3 cells; format: cell-based; conditions: pretreatment of cells; 4-12 hours
Source text: For example, activating ras mutations result in increased generation of DAG upon stimulation with mitogens, although the sources of DAG differ between experimental systems. In nontransformed renal mesangial cells, IL-1β stimulation increased PLA2 and LPAAT activation, resulting in generation of sn-2 unsaturated PA and subsequent hydrolysis to DAG by phosphatidate phosphohydrolase. The ras transformation in NIH/3T3 cells upregulates serum-stimulated generation of DAG and PA. Particular species of DAG that is stimulated by serum is dioleoyl and of PA are dilinoleoyl and dioleoyl. […] The inhibition occurs either through suppressing the generation of PA de novo from lysoPA, or through inhibition of one or both arms of the Lands cycle. […] Therefore, the ras transformation mediates an upregulation of PA through indirect stimulation of PLA2 and/or LPAAT activity.

[6] = test system: tumor necrosis factor (TNF); conditions: normal volunteers; cited from earlier work
[7] = test system: ras-transformed NIH/3T3 cells

CC(=O)CCCCn1c(=O)c2c(ncn2C)n(C)c1=O [PTX, 1-(5-oxohexyl)-3,7-dimethylxanthine]
inhibition of cytokine activity to affect chemotaxis ([1]; U.S. Pat. Nos. 4,965,271 and 5,096,906): inhibit activity of certain cytokines to affect chemotaxis | stimulation of chemotaxis in polymorphonuclear leukocytes ([1]; in response to a stimulator of chemotaxis, U.S. Pat. No. 4,636,507): stimulate chemotaxis in polymorphonuclear leukocytes | protection of L929 cells from TNF-induced cytotoxicity [2]: inhibited TNF-induced cytotoxicity in a dose dependent manner | blocking of PAPH [3]: blocks PAPH in a specific activation pathway | DAG derived from remodeled and PLA-generated PA ([4]; PTX-treated cells): diminished | formation of remodeled PA ([4]; in vitro, high PTX concentrations): blocks formation of remodeled PA through the PA/DAG pathway at high PTX concentrations | generation of phospholipid second messengers (DAG, PA) [5]: blocks generation of these phospholipid second messengers | TNF levels [6]: TNF levels were higher among PTX recipients | inhibition of ras-transformed NIH/3T3 cells relative to parental cells [7]: inhibits ras-transformed NIH/3T3 cells more than parental cells | reversibility / cytotoxicity of inhibition [7]: reversible and is not associated with significant cytotoxicity
